For one data set, the system named is warm-blooded animals. The following applies: prior-art compounds; cited from earlier work.
For data set [1], the system named is two-spotted spider mite (Tetranychus urticae). In words: Tetranychus test (resistant). It is filed as in vivo. The note with it: 48 h, after 2 days, read-out: Degree of destruction in % after 2 days; for mortality at 0.01 % strength: 0.01 % active compound concentration; for mortality at 0.1 % strength: 0.1 % active compound concentration. Here is the method:
Solvent: 3 parts by weight of acetone
Emulsifier: 1 part by weight of alkylaryl polyglycol ether
To produce a suitable preparation of active compound, 1 part by weight of the active compound was mixed with the stated amount of solvent and the stated amount of emulsifier and the concentrate was diluted with water to the desired concentration.
These bean plants were heavily infested with the two-spotted spider mite (Tetranychus urticae) in all stages of development.
After the specified periods of time, the effectiveness of the preparation of active compounds was determined by counting the dead mites. The degree of destruction thus obtained is expressed as a percentage: 100% means that all the spider mites were killed, whereas 0% means that none of the spider mites were killed.

Data set [2] can be described thus: Toxicity test (peroral), albino rat. The note with it: in vivo, po, evaluation after 7 days, read-out: LD50 values (in mg/kg of body weight). Here is the method: Test animal: Albino rat (Rattus norvegicus)
To produce a suitable preparation of active compound, 3 parts by weight of active compound were mixed with 2.8 parts by weight of highly dispersible silica and 4.2 parts by weight of talc. Suspensions which contained, in 1 ml of liquid, the amount of active compound to be applied per 100 g of animal weight, were prepared from the above active-compound concentrate, with a little added powdered vegetable gum, by grinding with water. Dosing was effected volumetrically after weighing the test animals. A steel, knob-ended probe was used for oral administration. The evaluation was carried out in each case after the end of the above-mentioned time interval, calculated from the administration of the active compound.
The LD50 values (dose of active compound at which 50% of the treated animals were killed) were determined in the usual manner from the mortality figures of the doses, which were varied in geometrical progression.

In data set [3] the test system is fly larvae (Lucilia cuprina res.). The data set is described as follows: Test with parasitic fly larvae. In kind it is in vivo. The following applies: after 24 hours, read-out: Degree of destruction in %. Here is the method: Solvent: 35 parts by weight of ethylene polyglycol monomethyl ether
Emulsifier: 35 parts by weight of nonylphenol polyglycol ether.
To produce a suitable preparation of active compound, 30 parts by weight of the active substance in question were mixed with the stated amount of solvent which contained the above-mentioned proportion of emulsifier and the concentrate thus obtained was diluted with water to the desired concentration.
About 20 fly larvae (Lucilia cuprina) were introduced into a test tube which contained approximately 2 ml of horse muscle. 0.5 ml of the preparation of active compound was applied to this horse meat. After 24 hours, the degree of destruction was determined in %. 100% means that all the larvae had been killed and 0% means that no larvae had been killed.

The subject of data set [4] is caterpillars of the diamond-back moth (Plutella maculipennis). In words: Plutella Test. In kind it is in vivo. The following applies: 72 h, after 3 days, read-out: Degree of destruction in % after 3 days; for mortality at 0.004 % strength: 0.004 % active compound; for mortality at 0.02 % strength: 0.02 % active compound; for mortality at 0.1 % strength: 0.1 % active compound; for mortality at 0.0008 % strength: 0.0008 % active compound. Here is the method:
(§1) Solvent: 3 parts by weight Acetone
(§2) Emulsifier: 1 part by weight Alkylaryl polyglycol ether
(§3) To produce a suitable preparation of active compound, 1 part by weight of the active compound is mixed with the stated amount of solvent and the stated amount of emulsifier and the concentrate is diluted with water to the desired concentration.
Cabbage leaves (Brassica oleracea) are sprayed with the preparation of the active compound until dew moist and are then infested with caterpillars of the diamond-back moth (Plutella maculipennis).
After the specified periods of time, the degree of destruction is determined as a percentage: 100 % means that all the caterpillars are killed whereas 0 % means that none of the caterpillars are killed.

The test system of data set [5] is larvae of mustard beetles (Phaedon cochleariae). In words: Phaedon-Larvae-Test. In kind it is in vivo. The following applies: in Brassica, 72 h, after 3 days, read-out: Degree of destruction in % after 3 days; for mortality at 0.004 % strength: 0.004 % active compound; for mortality at 0.02 % strength: 0.02 % active compound; for mortality at 0.1 % strength: 0.1 % active compound. Here is the method: as §1, §2
To produce a suitable preparation of the particular active compound, 1 part by weight of such active compound is mixed with the stated amount of solvent and the stated amount of emulsifier, and the resulting concentrate is diluted with water to the desired final concentration.
Cabbage leaves (Brassica oleracea) are sprayed with the preparation of the given active compound until dripping wet and then infested with the larvae of mustard beetles (Phaedon cochleariae).
After specified periods of time, the degree of destruction is determined as a percentage: 100 % means that all the beetle larvae are killed, 0 % means that none of the beetle larvae are killed. The active compounds, the concentrations used, the evaluation time and the results obtained can be seen from the following Table 5: […]

Data set [6] concerns peach aphids (Myzus persicae). The data set is described as follows: Myzus Test (contact action). In kind it is in vivo. The following applies: 24 h, after 1 day, read-out: Degree of destruction in % after 1 day; for mortality at 0.02 % strength: 0.02 % active compound; for mortality at 0.1 % strength: 0.1 % active compound. Here is the method:
as §1, §2, §3
Cabbage plants (Brassica oleracea) which have been heavily infested with peach aphids (Myzus persicae) are sprayed with the preparation of the active compound until dripping wet.
After the specified periods to time, the degree of destruction is determined as a percentage: 100 % means that all the aphids are killed whereas 0 % means that none of the aphids are killed.

On to `CCOP(=S)(OCC)Oc1ccc(S(=O)(=O)CCl)cc1` [Compound A, O,O-diethyl-O-(4-chloromethylsulfonylphenyl)-thionophosphoric acid ester], for which the “toxicity towards warm-blooded animals” value in the data set on warm-blooded animals is listed as “high toxicity”.

As for `CCOP(=S)(OCC)Oc1ccc(S(=O)(=O)CCl)cc1` [drawing 6, reference compound], in data set [1], the mortality at 0.01 % strength stood at 0% and the mortality at 0.1 % strength was determined as 50%.

`CCCSP(=S)(OCC)Oc1ccc(S(=O)(=O)CCl)cc1Cl` (stereo not drawn) [drawing 7]: in data set [1], the mortality at 0.01 % strength is 60% and the mortality at 0.1 % strength came to 100%.

With `CCOP(=S)(OCC)Oc1ccc(S(=O)(=O)CCl)cc1` [drawing 8, reference compound], the LD50 at 168 h in data set [2] was 2.5 to 5 mg/kg.

As for `CCCSP(=S)(OCC)Oc1ccc(S(C)(=O)=O)cc1Cl` (stereo not drawn) [drawing 9], in data set [2], the LD50 at 168 h is 50 to 100 mg/kg.

Take `CCCSP(=S)(OCC)Oc1ccc(S(C)(=O)=O)cc1Br` (stereo not drawn) [drawing 10]: the LD50 at 168 h in data set [2] is 50 to 100 mg/kg.

Turning to `CCCSP(=S)(OCC)Oc1ccc(S(=O)(=O)CCl)cc1` (stereo not drawn) [drawing 11], in data set [2], the LD50 at 168 h was around 250 mg/kg.

`CCCSP(=S)(OCC)Oc1ccc(S(=O)(=O)CCl)cc1Cl` (stereo not drawn) [drawing 12]: in data set [2], the LD50 at 168 h lay within 100 to 250 mg/kg.

`CCCSP(=S)(OCC)Oc1ccc(SC(F)C(=O)OCC)cc1` (stereo not drawn) [drawing 13]: the LD50 at 168 h in data set [2] is 100 to 250 mg/kg.

As to `CCCSP(=S)(OCC)Oc1ccc(S(=O)(=O)CCl)cc1` (stereo not drawn) [drawing 14], in data set [3], the mortality at 1 ppm is 0%, the mortality at 10 ppm was determined as 100%, the mortality at 30 ppm came out at 100% and the mortality at 100 ppm stood at 100%.

In the case of `CCCSP(=S)(OCC)Oc1ccc(S(C)(=O)=O)cc1Cl` (stereo not drawn) [drawing 15], in data set [3], the mortality at 1 ppm stood at 0%, the mortality at 10 ppm was 100%, the mortality at 30 ppm worked out at 100% and the mortality at 100 ppm turned out to be 100%. Moreover, the mortality at 3 ppm in data set [3] (3 ppm) amounted to 100%.

As for `CCCSP(=S)(OCC)Oc1ccc(SC(F)C(=O)OCC)cc1` (stereo not drawn) [drawing 16], in data set [3], the mortality at 10 ppm was 0%, the mortality at 30 ppm is above 50% and the mortality at 100 ppm is 100%.

As for `CCOP(=S)(Oc1ccc(S(C)(=O)=O)cc1)SC` (stereo not drawn) [drawing 17, reference compound], in data set [4], the mortality at 0.004 % strength amounted to 0%, the mortality at 0.02 % strength is 85% and the mortality at 0.1 % strength amounted to 100%.

With `CCCSP(=S)(OCC)Oc1ccc(S(C)(=O)=O)cc1` (stereo not drawn) [drawing 18], in data set [4], the mortality at 0.004 % strength was 100%, the mortality at 0.02 % strength worked out at 100% and the mortality at 0.1 % strength amounted to 100%.

For the compound `CCCSP(=S)(OCC)Oc1ccc(S(=O)(=O)CCl)cc1` (stereo not drawn) [drawing 19], in data set [4], the mortality at 0.004 % strength was found to be 100%, the mortality at 0.02 % strength stood at 100% and the mortality at 0.1 % strength is 100%.

Regarding `CCCSP(=S)(OCC)Oc1ccc(S(C)(=O)=O)cc1Cl` (stereo not drawn) [drawing 20], in data set [4], the mortality at 0.0008 % strength amounted to 100%, the mortality at 0.004 % strength turned out to be 100%, the mortality at 0.02 % strength is 100% and the mortality at 0.1 % strength was 100%.

With `CCCSP(=S)(OCC)Oc1ccc(Cl)cc1Cl` (stereo not drawn) [drawing 21], in data set [4], the mortality at 0.0008 % strength worked out at 0%, the mortality at 0.004 % strength amounted to 100%, the mortality at 0.02 % strength turned out to be 100% and the mortality at 0.1 % strength was 100%.

On to `CCCSP(=S)(OCC)Oc1ccc(S(C)(=O)=O)cc1Br` (stereo not drawn) [drawing 22], for which, in data set [4], the mortality at 0.0008 % strength came to 90%, the mortality at 0.004 % strength turned out to be 100%, the mortality at 0.02 % strength turned out to be 100% and the mortality at 0.1 % strength was 100%.

As for `CCCSP(=S)(OCC)Oc1ccc(Cl)cc1Cl` (stereo not drawn) [drawing 23, reference compound], in data set [5], the mortality at 0.004 % strength is 20%, the mortality at 0.02 % strength came to 100% and the mortality at 0.1 % strength worked out at 100%.

For `CCOP(=S)(Oc1ccc(S(C)(=O)=O)cc1)SC` (stereo not drawn) [drawing 24], in data set [5], the mortality at 0.004 % strength was 15%, the mortality at 0.02 % strength was determined as 100% and the mortality at 0.1 % strength turned out to be 100%.

For the compound `CCCSP(=S)(OCC)Oc1ccc(S(C)(=O)=O)cc1` (stereo not drawn) [drawing 25], in data set [5], the mortality at 0.004 % strength was found to be 100%, the mortality at 0.02 % strength stood at 100% and the mortality at 0.1 % strength amounted to 100%.

`CCCSP(=S)(OCC)Oc1ccc(S(C)(=O)=O)cc1Br` (stereo not drawn) [drawing 26]: in data set [5], the mortality at 0.004 % strength was 100%, the mortality at 0.02 % strength was determined as 100% and the mortality at 0.1 % strength stood at 100%.

Turning to `CCOP(=S)(Oc1ccc(S(C)(=O)=O)cc1)SC` (stereo not drawn) [drawing 27, reference compound], in data set [6], the mortality at 0.02 % strength is 0% and the mortality at 0.1 % strength was 35%.

As for `CCCSP(=S)(OCC)Oc1ccc(S(C)(=O)=O)cc1` (stereo not drawn) [drawing 28], in data set [6], the mortality at 0.02 % strength worked out at 60% and the mortality at 0.1 % strength came to 100%.

Take `CCCSP(=S)(OCC)Oc1ccc(S(C)(=O)=O)cc1Cl` (stereo not drawn) [drawing 29]: in data set [6], the mortality at 0.02 % strength turned out to be 90% and the mortality at 0.1 % strength is 100%.

Turning to `CCCSP(=S)(OCC)Oc1ccc(S(=O)(=O)CCl)cc1` (stereo not drawn) [drawing 30], in data set [6], the mortality at 0.02 % strength was 70% and the mortality at 0.1 % strength was 100%.

Take `CCCSP(=S)(OCC)Oc1ccc(S(=O)(=O)CCl)cc1Cl` (stereo not drawn) [drawing 31]: in data set [6], the mortality at 0.02 % strength was 55% and the mortality at 0.1 % strength worked out at 100%.

Values taken from patent US4013794A, “O-alkyl-S-alkyl-O-phenyl phosphates and insecticidal and acaricidal method of use” (priority 1973, dated 1977).
